Laboratory results from ChEMBL document CHEMBL1201862, “PubChem BioAssay data set” (2004).
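Grown in 96-well plates, cells were treated for 48 hours with each compound at five concentrations. Insufficient inhibition: endpoint recorded as highest concentration tested. GI50 = concentration required for 50% inhibition of growth.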 The source made the active and inactive calls. Cut-off read from the data, not from the text of the source: active = GI50 up to about 1.1 µM and inactive = higher.

How the values were obtained:
Experiment in all cases: NCI tumour cell line growth inhibition, 48 h
[1] = tested on: NCI-H23
[2] = tested on: HCT-15
[3] = tested on: RXF 393
[4] = tested on: HCT-116
[5] = tested on: A549
[6] = tested on: EKVX
[7] = tested on: HOP-62
[8] = tested on: SF-539
[9] = tested on: SF-268
[10] = tested on: UO-31
[11] = tested on: NCI-H226
[12] = tested on: SK-OV-3
[13] = tested on: OVCAR-5
[14] = tested on: M19-MEL
[15] = tested on: KM12
[16] = tested on: NCI-H522
[17] = tested on: DMS-273
[18] = tested on: SNB-19
[19] = tested on: Malme-3M
[20] = tested on: TK-10
[21] = tested on: MOLT-4
[22] = tested on: SR
[23] = tested on: UACC-257
[24] = tested on: 786-0
[25] = tested on: COLO 205
[26] = tested on: SNB-78
[27] = tested on: A498
[28] = tested on: DLD-1
[29] = tested on: HOP-92
[30] = tested on: KM-20L2
[31] = tested on: HL-60
[32] = tested on: SK-MEL-28
[33] = tested on: OVCAR-3
[34] = tested on: HOP-18
[35] = tested on: RPMI-8226
[36] = tested on: LOX IMVI
[37] = tested on: OVCAR-8
[38] = tested on: ACHN
[39] = tested on: M14
[40] = tested on: CCRF-CEM
[41] = tested on: IGROV-1
[42] = tested on: SNB-75
[43] = tested on: CAKI-1
[44] = tested on: SN12C
[45] = tested on: HCC 2998
[46] = tested on: SK-MEL-2
[47] = tested on: NCI-H460
[48] = tested on: OVCAR-4
[49] = tested on: DMS-114
[50] = tested on: U-251
[51] = tested on: LXFL 529
[52] = tested on: SF-295
[53] = tested on: K562
[54] = tested on: HT-29
[55] = tested on: XF498
[56] = tested on: SW-620
[57] = tested on: SK-MEL-5
[58] = tested on: UACC-62

With `N=C(NNS(=O)(=O)c1ccccc1)Oc1ccc(Cl)cc1` as the compound, how does the GI50 [1] read?
The GI50 was > 100 µM (inactive).

What about the GI50 [2] of the same compound?
The GI50 was 33.1 µM.

And the GI50 [3]?
The GI50 was 11.3 µM (inactive).

And the GI50 [4]?
Its GI50 is 65.8 µM (inactive).

And the GI50 [5]?
The GI50 was > 100 µM (inactive).

What about the GI50 [6] of the same compound?
The GI50 was > 100 µM (inactive).

And the GI50 [7]?
Its GI50 is > 100 µM (inactive).

And the GI50 [8]?
The GI50 was > 100 µM (inactive).

What about the GI50 [9] of the same compound?
Its GI50 is > 100 µM (inactive).

And the GI50 [10]?
The GI50 was > 100 µM (inactive).

What about the GI50 [11] of the same compound?
Its GI50 is > 100 µM (inactive).

What about the GI50 [12] of the same compound?
The GI50 was > 100 µM (inactive).

And the GI50 [13]?
The GI50 was > 100 µM (inactive).

What about the GI50 [14] of the same compound?
Its GI50 is > 100 µM (inactive).

What about the GI50 [15] of the same compound?
Its GI50 is > 100 µM (inactive).

What about the GI50 [16] of the same compound?
Its GI50 is > 100 µM (inactive).

And the GI50 [17]?
Its GI50 is > 100 µM (inactive).

What about the GI50 [18] of the same compound?
Its GI50 is > 100 µM (inactive).

And the GI50 [19]?
The GI50 was > 100 µM (inactive).

What about the GI50 [20] of the same compound?
Its GI50 is > 100 µM (inactive).

What about the GI50 [21] of the same compound?
The GI50 was 68.5 µM (inactive).

And the GI50 [22]?
Its GI50 is 43.1 µM (inactive).

And the GI50 [23]?
The GI50 was > 100 µM (inactive).

What about the GI50 [24] of the same compound?
Its GI50 is 44.3 µM (inactive).

And the GI50 [25]?
The GI50 was 35.4 µM (inactive).

And the GI50 [26]?
Its GI50 is > 100 µM (inactive).

And the GI50 [27]?
The GI50 was > 100 µM (inactive).

And the GI50 [28]?
Its GI50 is 90.2 µM (inactive).

And the GI50 [29]?
The GI50 was > 100 µM (inactive).

What about the GI50 [30] of the same compound?
The GI50 was > 100 µM (inactive).

And the GI50 [31]?
The GI50 was 21.1 µM (inactive).

What about the GI50 [32] of the same compound?
Its GI50 is > 100 µM (inactive).

And the GI50 [33]?
Its GI50 is 78.5 µM (inactive).

What about the GI50 [34] of the same compound?
The GI50 was > 100 µM (inactive).

And the GI50 [35]?
The GI50 was 70.1 µM (inactive).

And the GI50 [36]?
The GI50 was 48.3 µM (inactive).

What about the GI50 [37] of the same compound?
The GI50 was > 100 µM (inactive).

And the GI50 [38]?
Its GI50 is > 100 µM (inactive).

And the GI50 [39]?
Its GI50 is > 100 µM (inactive).

And the GI50 [40]?
Its GI50 is 38.3 µM (inactive).

What about the GI50 [41] of the same compound?
Its GI50 is > 100 µM (inactive).

And the GI50 [42]?
Its GI50 is > 100 µM (inactive).

And the GI50 [43]?
The GI50 was > 100 µM (inactive).

And the GI50 [44]?
The GI50 was > 100 µM (inactive).

And the GI50 [45]?
The GI50 was > 100 µM (inactive).

What about the GI50 [46] of the same compound?
Its GI50 is > 100 µM (inactive).

And the GI50 [47]?
The GI50 was > 100 µM (inactive).

What about the GI50 [48] of the same compound?
The GI50 was > 100 µM (inactive).

What about the GI50 [49] of the same compound?
The GI50 was 69.5 µM (inactive).

And the GI50 [50]?
Its GI50 is 60.3 µM (inactive).

What about the GI50 [51] of the same compound?
The GI50 was 51.9 µM (inactive).

And the GI50 [52]?
Its GI50 is > 100 µM (inactive).

And the GI50 [53]?
The GI50 was 24.8 µM (inactive).

And the GI50 [54]?
The GI50 was > 100 µM (inactive).

And the GI50 [55]?
The GI50 was > 100 µM (inactive).

And the GI50 [56]?
Its GI50 is 5.75 µM (inactive).

What about the GI50 [57] of the same compound?
The GI50 was > 100 µM (inactive).

And the GI50 [58]?
Its GI50 is 59.8 µM (inactive).

`COc1cccc2c1c1ccc3c(c1n2C)C(=O)C=CC3=O` was tested. Which GI50 [1] did it give?
Its GI50 is 16.1 µM (inactive).

And the GI50 [2]?
Its GI50 is 17.7 µM.

And the GI50 [4]?
The GI50 was 14.2 µM (inactive).

And the GI50 [5]?
The GI50 was > 100 µM (inactive).

What about the GI50 [7] of the same compound?
Its GI50 is > 100 µM (inactive).

And the GI50 [8]?
The GI50 was 16.6 µM (inactive).

What about the GI50 [9] of the same compound?
The GI50 was 17.8 µM (inactive).

And the GI50 [10]?
The GI50 was 18.6 µM (inactive).

And the GI50 [11]?
Its GI50 is 64.3 µM (inactive).

And the GI50 [12]?
The GI50 was > 100 µM (inactive).

What about the GI50 [13] of the same compound?
Its GI50 is 41.9 µM (inactive).

And the GI50 [14]?
Its GI50 is 1.24 µM (inactive).

What about the GI50 [15] of the same compound?
The GI50 was 78 µM (inactive).

And the GI50 [16]?
The GI50 was 3.89 µM (inactive).

What about the GI50 [17] of the same compound?
The GI50 was 16 µM (inactive).

What about the GI50 [18] of the same compound?
Its GI50 is > 100 µM (inactive).

And the GI50 [19]?
The GI50 was 13.9 µM (inactive).

And the GI50 [20]?
The GI50 was 18.9 µM (inactive).

And the GI50 [21]?
Its GI50 is 2.64 µM (inactive).

And the GI50 [22]?
Its GI50 is 2.4 µM (inactive).

And the GI50 [23]?
Its GI50 is 14.9 µM (inactive).

And the GI50 [24]?
Its GI50 is 17.3 µM (inactive).

And the GI50 [25]?
The GI50 was 6.15 µM (inactive).

And the GI50 [26]?
The GI50 was 18.7 µM (inactive).

And the GI50 [27]?
The GI50 was > 100 µM (inactive).

What about the GI50 [28] of the same compound?
Its GI50 is 16.4 µM (inactive).

What about the GI50 [29] of the same compound?
Its GI50 is 13.1 µM (inactive).

What about the GI50 [30] of the same compound?
Its GI50 is 63.4 µM (inactive).

And the GI50 [31]?
The GI50 was 1.51 µM (inactive).

What about the GI50 [32] of the same compound?
The GI50 was 19 µM (inactive).

What about the GI50 [33] of the same compound?
The GI50 was 16.3 µM (inactive).

And the GI50 [34]?
The GI50 was 14.1 µM (inactive).

And the GI50 [35]?
The GI50 was 2.81 µM (inactive).

What about the GI50 [36] of the same compound?
The GI50 was 16.9 µM (inactive).

What about the GI50 [37] of the same compound?
The GI50 was 15.3 µM (inactive).

What about the GI50 [38] of the same compound?
Its GI50 is 15 µM (inactive).

And the GI50 [39]?
Its GI50 is 14.6 µM (inactive).

What about the GI50 [40] of the same compound?
Its GI50 is 0.615 µM (active).

What about the GI50 [41] of the same compound?
Its GI50 is 25.5 µM (inactive).

What about the GI50 [42] of the same compound?
Its GI50 is 0.695 µM (active).

What about the GI50 [43] of the same compound?
Its GI50 is 3.15 µM (inactive).

What about the GI50 [44] of the same compound?
The GI50 was 20.3 µM (inactive).

And the GI50 [45]?
Its GI50 is 48.4 µM (inactive).

And the GI50 [46]?
Its GI50 is 16.9 µM (inactive).

And the GI50 [47]?
Its GI50 is 48.4 µM (inactive).

And the GI50 [48]?
The GI50 was 17.5 µM (inactive).

What about the GI50 [49] of the same compound?
The GI50 was 20 µM (inactive).

What about the GI50 [50] of the same compound?
The GI50 was 48.5 µM (inactive).

And the GI50 [51]?
Its GI50 is 12 µM (inactive).

What about the GI50 [52] of the same compound?
Its GI50 is > 100 µM (inactive).

What about the GI50 [53] of the same compound?
The GI50 was 3.61 µM (inactive).

And the GI50 [54]?
The GI50 was 2.43 µM (inactive).

And the GI50 [55]?
Its GI50 is 15.8 µM (inactive).

And the GI50 [56]?
The GI50 was 12.1 µM (inactive).

What about the GI50 [57] of the same compound?
The GI50 was 37.8 µM (inactive).

What about the GI50 [58] of the same compound?
The GI50 was 17.1 µM (inactive).
